For experiment [1], the system named is AMP-induced hyperactivity. Nature of the experiment: d-Amphetamine-induced hyperlocomotion in mice. It is filed as in vivo. Conditions: test compound ip 30 minutes before d-amphetamine 2.0 mg/kg sc, FIG. 1. An excerpt: (v) Assessment of Effects on Psychostimulant-Induced Hyperlocomotion in Mice
In both humans and experimental animals amphetamine profoundly affects motor activity, sensorimotor function, sleep, attention, aggressive and sexual behaviors, learning and memory, operant behaviors, appetite and food intake. In addition, amphetamine induces psychotic reactions in normal individuals and exacerbates symptoms of schizophrenia in patients. In experimental animals several distinct behaviors are considered to be correlates of amphetamine psychosis. For example, amphetamine-induced hyperactivity in rodents is believed to model the psychotic symptoms of schizophrenia. Reversal of these behaviors is used to predict potential antipsychotic activity of drugs in pre-clinical studies.
Male NMRI mice (5-week old, Janvier, France) or C57BL/6J mice (6-week old, Janvier, France) were group housed and allowed ad-libitum access to food and water. A 12 hour light/dark cycle was imposed with lights-on period between 0530 and 1730 hours. All testing occurred between 700 and 1300 hours. All procedures were approved by Abbott Institutional Animal Care and Use Committee (USA) or Animal Welfare Officer (Germany) and were conducted in accordance with the National Institutes of Health Guide for Care and Use of Laboratory Animals guidelines and applicable national laws in the facilities accredited by the Association for the Assessment and Accreditation of Laboratory Animal Care.
On the day of experiment, animals were brought from the animal facility into the experimental room and were allowed to acclimatize for at least 30 minutes. Animals were then placed in the test cages for a habituation period of 60 minutes. The animals were then injected ip with the test compound and returned to the test cage. 30 Minutes later, the mice were injected with d-amphetamine (2.0 mg/kg, AMP, Sigma, #A5880, sc) or phencyclidine (2.0 mg/kg, PCP, Sigma, #P3029, sc), and returned to the test cages for 90 minutes. […] The analyzed data were: fine movements, ambulations and total movements (fine+ambulations). […]

The target in experiment [2] is T1, 5HT2C receptors (Homo sapiens, UniProt P28335).
T1 sequence (P28335 33-458): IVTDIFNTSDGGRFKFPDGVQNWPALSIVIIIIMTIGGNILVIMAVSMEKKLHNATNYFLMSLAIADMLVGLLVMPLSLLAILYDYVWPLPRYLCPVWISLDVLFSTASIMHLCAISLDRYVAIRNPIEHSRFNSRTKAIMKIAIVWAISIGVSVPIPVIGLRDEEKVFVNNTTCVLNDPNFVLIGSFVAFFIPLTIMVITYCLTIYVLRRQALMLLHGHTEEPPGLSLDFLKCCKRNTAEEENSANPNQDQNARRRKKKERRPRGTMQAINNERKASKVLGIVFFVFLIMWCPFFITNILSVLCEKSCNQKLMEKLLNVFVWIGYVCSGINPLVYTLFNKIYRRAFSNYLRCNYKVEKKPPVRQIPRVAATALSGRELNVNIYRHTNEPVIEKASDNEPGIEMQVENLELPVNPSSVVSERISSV
Nature of the experiment: Human 5-HT2C functional assay in 1321N1 cells (intracellular calcium, FLIPR). Also noted: expressed in transfected cells; host or cells: 1321N1 cells. It is filed as cell-based. Conditions: for EC50: 1321N1 cells stably transfected, maximum calcium response, read-out: EC50 (μM), 5-HT2c Agonist Activity. The method, then:
(ii) Human 5-HT2C Functional Assay in 1321N1 Cells
Functional activity was determined by testing the effect of the compounds on intracellular calcium levels in 1321N1 cells stably transfected with the human 5-HT2C receptor. Cells were seeded into 96-well plates at 50,000 cells/well and grown overnight in tissue culture medium (DMEM with Glutamax I (Invitrogen), containing 10% dFCS, 50 μg/mL Gentamicin, 400 μg/mL Geneticin) at 37° C. and 7% CO2. Growth medium was replaced by medium without dFCS for overnight incubation. Cells were loaded with a fluorescent calcium-sensitive dye in the presence of 1% probenicid according to the manufacturer's protocol (Fluo4 AM, Molecular Devices). Serial compound dilutions (final concentrations 10^−10 to 10^−5 M) were added to the cells either alone or in the presence of serotonin (10^−9 M) and the maximum calcium response was determined using a FLIPR instrument (Molecular Devices). Concentration-response curves were fitted using a four-parameter logistic equation (GraphPad Prism). The concentration at which the compound exerts half its maximal effect is named the ‘effective concentration 50’ or ‘EC50’ and is listed in Table 2.
Emax is the maximum functional response or efficacy expressed as a percentage relative to the effect of serotonin.
Background: Calcium flux is commonly read through the fluorescence of an indicator in the cells.

For the next experiment, the target named is T2, 5HT2B receptors (Homo sapiens, UniProt P41595).
T2 construct: expressed in transfected cells; host or cells: CHO-K1 cells
Nature of the experiment: Human 5-HT2B functional assay in CHO-K1 cells (calcium flux, FLIPR). Conditions: for Emax: CHO-K1 cells, percentage relative to the effect of serotonin, read-out: Emax (%), 5-HT2B Agonist Activity. Type of experiment: cell-based. Summed up:
(§1)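 EC50 came from a 4-parameter logistic fit, with Emax expressed relative to serotonin, of intracellular Ca2+ rises read on FLIPR at 480/530 nm, 25° C, over 3 min. Compounds ran from 10 μM in six 1:10 steps (0.2% DMSO) on serum-starved CHO-K1 transfectants pre-loaded 60 min with Ca4 dye and probenecid.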

In experiment [3] the target is T3, human serotonin 5-HT2c receptor (Homo sapiens, UniProt P28335).
T3 construct: expressed in transfected cells; host or cells: CHO cells (membrane homogenate)
T3 sequence (P28335 33-458): T1 sequence (P28335 33-458)
Nature of the experiment: Human 5-HT2C receptor radioligand binding assay (agonist site, [125I](±)DOI). Conditions: membranes of transfected CHO cells, 0.2 nM [125I](±)DOI, 15 minutes at 37° C. Summed up:
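Affinity for the agonist site measured by radioligand binding in transfected CHO cells expressing the human receptor, using [125I](±)DOI.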

The target of experiment [4] is T1, 5HT2C receptors. In words: Human 5-HT2C functional assay in CHO-K1 cells (calcium flux, FLIPR). Type of experiment: cell-based. Also noted: expressed in transfected cells; host or cells: CHO-K1 cells. Conditions: for Emax: percentage relative to the effect of serotonin. Summed up: as §1
The target of a further experiment is T4, h-5-HT6 receptor (Homo sapiens, UniProt P50406).
T4 construct: expressed in transfected cells; host or cells: HEK293 cells (membrane preparation)
In words: Human 5-HT6 receptor radioligand binding assay ([3H]-LSD, HEK293 membranes). The procedure:
(iv) Human 5-HT6 Receptor Radioligand Binding Assay
Preparation of Membranes by Ultrasonic Treatment and Differential Centrifugation
Cells from stable clonal cell lines expressing the corresponding receptor (5-HT6) were washed with PBS (without Ca^++, Mg^++) and harvested in PBS with 0.02% EDTA. The cells were collected by centrifugation at 500 g for 10 minutes at 4° C., washed with PBS and centrifuged (500 g, 10 minutes at 4° C.). The pellets were stored at −80° C. until use. For membrane preparation, the thawed cell pellet was resuspended in ice-cold sucrose buffer (0.25 M sucrose, 10 mM HEPES (pH 7.4), 1 mM phenylmethylsulfonyl fluoride (PMSF) in DMSO, 5 μg/ml Pepstatin-A, 3 mM EDTA, 0.025% Bacitracin) and homogenized with a Branson Sonifier W-250 (Settings: Timer 4; Output Control 3; Duty Cycle constant; 2 to 3 cycles). Cell disruption was checked with the aid of a microscope. Remaining unbroken cells were pelleted at 1,000 g for 10 minutes at 4° C. The sucrose buffer supernatant was then centrifuged at 60,000 g for 1 hour at 4° C. (Beckman Ultrazentrifuge XL 80). The pellet was resuspended in 30 mL of ice-cold Tris buffer (20 mM TRIS (pH 7.4), 5 μg/mL Pepstatin A, 0.1 mM PMSF, 3 mM EDTA) by pipetting through a 10 mL serological pipet and centrifuged for 1 hour at 4° C. at 60,000 g. A final resuspension was performed in a small volume of ice-cold Tris buffer (see above) by pressing through a serological pipet followed by ultrasonic treatment with a Branson Sonifier W-250 (Settings: Timer 1; Output Control 3; Duty Cycle constant; 1 cycle). Protein concentration was determined (BCA-Kit; Pierce) and aliquots stored at −80° C. or in liquid nitrogen for long-term storage.
Receptor Binding Experiments
All receptor binding experiments were carried out in the corresponding assay buffer in a total volume of 200 μL in the presence of various concentrations of test compound (10^−5 M to 10^−9 M, tenfold serial dilution, duplicate determinations). The assays were terminated by filtration on polyethylenimine (PEI 0.1% or 0.3%) presoaked Packard Unifilter Plates (GF/C or GF/B) with a Tomtec MachIII U 96 well-plate harvester. After the plates had been dried for 2 hours at 55° C. in a drying chamber scintillation cocktail (BetaPlate Scint; PerkinElmer) was added. Radioactivity was measured in a Microbeta Trilux two hours after the addition of the scintillation mixture.
5-HT6 Receptor Binding Assay
HEK293 cells stably expressing the h-5-HT6 receptor (NCBI Reference Sequence XM 001435) were cultured in RPMI1640 medium supplemented with 25 mM HEPES, 10% fetal calf serum and 1-2 mM glutamine. The membrane preparation was performed as described above. […] On the day of the assay, the membranes were thawed, diluted in assay buffer (50 mM Tris-HCl, 5 mM CaCl2, 0.1% ascorbic acid, 10 μM pargyline, pH 7.4) to a concentration of 8 μg protein/assay and homogenized by gentle vortexing. […] Non-specific binding was defined with 1 μM methiothepin. The binding reaction was carried out for 3.5 hours at room temperature. During the incubation, the plates were shaken on a plate shaker at 100 rpm and terminated by filtration on Packard Unifilter GF/C (0.1% PEI) plates, followed by 2 wash cycles with ice-cold 50 mM Tris-HCl, 5 mM CaCl2.
Data derived from liquid scintillation counting were analyzed by iterative non-linear regression analysis with the use of the Statistical Analysis System (SAS): a program similar to “LIGAND” as described by Munson and Rodbard (Anal. Biochem. 1980, 107, 220-239). Fitting was performed according to formulae described by Feldman (Anal. Biochem. 1972, 48, 317-338). IC50, nH and Ki values were expressed as geometrical mean.
The results of the receptor binding studies are expressed as receptor binding constants Ki(5-HT6) as described herein before, and given in Table 5.

Setting [5] is: CHO-K1 cells over-expressing 5HT2B, calcium flux, read-out: EC50 (μM), 5-HT2B Agonist Activity.
Where [6] appears, read: CHO-K1 cells over-expressing 5HT2C, calcium flux, read-out: EC50 (μM), 5-HT2c Agonist Activity.
The mark [7] stands for this setting: HEK293 membranes, 1 nM [3H]-lysergic acid diethylamide, 3.5 hours at room temperature, read-out: Ki (μM), 5-HT6 Agonist Site Radioligand Binding.
Where [8] appears, read: CHO-K1, read-out: Emax (%), 5-HT2c Agonist Activity, CHO-K1 cells.

As usually defined, the EC50 is the midpoint of the concentration-response curve. The Emax is the maximal effect, on the per cent scale that the assay sets. One may read the Ki as a dissociation constant, usually derived from enzyme kinetics or from competition with a known ligand.

“Also recorded” adds a separate entry of the source. Where two headings read alike, the source gives them in different places.

T2 sequence (P41595 whole entry): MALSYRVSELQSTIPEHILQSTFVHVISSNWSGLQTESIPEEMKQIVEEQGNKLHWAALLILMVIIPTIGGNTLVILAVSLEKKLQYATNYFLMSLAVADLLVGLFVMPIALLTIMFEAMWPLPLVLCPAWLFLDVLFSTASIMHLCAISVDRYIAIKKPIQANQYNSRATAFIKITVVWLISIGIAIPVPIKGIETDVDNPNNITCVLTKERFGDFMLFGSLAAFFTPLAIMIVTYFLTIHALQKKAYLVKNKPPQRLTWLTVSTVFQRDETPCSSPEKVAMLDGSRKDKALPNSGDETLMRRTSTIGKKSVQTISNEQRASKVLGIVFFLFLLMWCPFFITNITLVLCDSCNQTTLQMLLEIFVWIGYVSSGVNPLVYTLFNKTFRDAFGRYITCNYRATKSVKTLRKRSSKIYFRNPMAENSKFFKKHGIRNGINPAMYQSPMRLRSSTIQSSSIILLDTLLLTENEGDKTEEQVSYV
T4 sequence (P50406 whole entry): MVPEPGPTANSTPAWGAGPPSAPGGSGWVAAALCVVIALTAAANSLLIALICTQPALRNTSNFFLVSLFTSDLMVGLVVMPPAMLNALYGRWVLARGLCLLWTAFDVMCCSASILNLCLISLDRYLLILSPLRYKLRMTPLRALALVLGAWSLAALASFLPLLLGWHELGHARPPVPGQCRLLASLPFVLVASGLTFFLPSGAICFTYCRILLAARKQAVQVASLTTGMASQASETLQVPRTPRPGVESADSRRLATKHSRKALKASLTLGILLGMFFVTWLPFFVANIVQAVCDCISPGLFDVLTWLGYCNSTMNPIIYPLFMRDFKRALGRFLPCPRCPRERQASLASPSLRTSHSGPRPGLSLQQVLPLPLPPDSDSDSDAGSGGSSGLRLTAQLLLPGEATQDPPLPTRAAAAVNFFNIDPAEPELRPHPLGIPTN

On to `O=C1C[C@H]2CNCCN2c2cc(CCc3ccccc3)ccc2N1` [Example 42, (4aS)-10-(2-phenylethyl)-1,2,3,4,4a,5-hexahydropyrazino[1,2-a][1,5]benzodiazepin-6(7H)-one], for which the AMP-induced hyperactivity result in experiment [1] was “attenuated AMP-induced hyperactivity significantly and in a dose dependent manner; also recorded: concentration-dependent effects of Example 42 attenuating the affect of d-amphetamine”. The EC50 stood at 0.0011 µM at 5HT2C receptors [2], 5 µM on 5HT2B receptors (setting [5]) and 0.0004 µM at 5HT2C receptors [4] (setting [6]). For the same compound, the Emax is 95% at 5HT2C receptors [2] (1321N1 cells, percentage relative to the effect of serotonin, read-out: Emax (%), 5-HT2c Agonist Activity); 55% at 5HT2B receptors; over 120% at 5HT2C receptors [4] (CHO-K1 cells, read-out: Emax (%), 5-HT2c Agonist Activity). For the same compound, the affinity in experiment [3] corresponds to a Ki of 0.00071 µM.

`O=C1CC2CNCCN2c2ccc(S(=O)(=O)c3ccccc3)cc2N1` (stereo not shown) [Example 112, 9-(phenylsulfonyl)-1,2,3,4,4a,5-hexahydropyrazino[1,2-a][1,5]benzodiazepin-6(7H)-one]: the Ki at h-5-HT6 receptor (setting [7]) worked out at 0.017 µM. In addition, the EC50 is 0.9 µM at 5HT2B receptors (setting [5]) and over 10 µM on 5HT2C receptors [4] (setting [6]). Moreover, on 5HT2B receptors, the Emax came to 90%.

Take `O=C1NCC2CNCCN2c2ccc(NS(=O)(=O)c3cccc(C(F)(F)F)c3)cc21` (stereo not shown) [Example 184, N-(7-oxo-1,2,3,4,4a,5,6,7-octahydropyrazino[1,2-a][1,4]benzodiazepin-9-yl)-3-(trifluoromethyl)benzenesulfonamide]: the Ki at h-5-HT6 receptor (setting [7]) came out at 0.008 µM. Further, the EC50 on 5HT2B receptors (setting [5]) and on 5HT2C receptors [4] (setting [6]) was over 10 µM each time.

Consider `Cc1cccc2c1OCC[C@H]1CNCCN21` [Example 226, (4aS)-8-methyl-2,3,4,4a,5,6-hexahydro-1H-pyrazino[2,1-d][1,5]benzoxazepine], for which, on h-5-HT6 receptor, the Ki came out at 2.06 µM. The EC50 on 5HT2B receptors was over 10 µM; at 5HT2C receptors [4] it was 0.0008 µM. Moreover, the Emax at 5HT2C receptors [4] (setting [8]) came out at 90%.

`O=C1CC2CNCCN2c2ccc(NS(=O)(=O)c3ccccc3)cc2N1` (stereo not shown) [Example 76, N-(6-oxo-1,2,3,4,4a,5,6,7-octahydropyrazino[1,2-a][1,5]benzodiazepin-9-yl)benzenesulfonamide]: the Ki on h-5-HT6 receptor (setting [7]) was 0.025 µM. Also, the EC50 at 5HT2C receptors [4] (setting [6]) is over 100 µM.

In the case of `CN1CCN2c3cccc(F)c3OCC[C@H]2C1` [Example 231, (4aS)-8-fluoro-3-methyl-2,3,4,4a,5,6-hexahydro-1H-pyrazino[2,1-d][1,5]benzoxazepine], affinity at h-5-HT6 receptor was put at a Ki of 0.855 µM. Moreover, the EC50 on 5HT2B receptors was over 10 µM; at 5HT2C receptors [4], 0.004 µM. For the same compound, the Emax on 5HT2C receptors [4] (setting [8]) is 85%.

Regarding `O=C1NCC2CN(Cc3ccccc3)CCN2c2ccc(NS(=O)(=O)c3ccccc3)cc21` (stereo not shown) [Example 47, N-(3-benzyl-7-oxo-1,2,3,4,4a,5,6,7-octahydropyrazino[1,2-a][1,4]benzodiazepin-9-yl)benzenesulfonamide], the figures for the Ki (at h-5-HT6 receptor (setting [7]); in experiment [3]) were 0.821 µM and 33 µM, respectively. The EC50 at 5HT2C receptors [2] is over 10 µM.

These data come from patent US8546377B2 (AbbVie Inc., priority 2009, dated 2013).
